{
  "source": "patent US20100004193A1",
  "about": "“COMBINATION THERAPY” (FONDAZIONE PER LA RICERCA BIOMEDICA AVANZATA ONLUS - …, priority 2008, published 2010)",
  "key": {"[1]": {"test_system": "T-24, HT-1197, HT-1376, MCF-7, A-549 and AsPC-1 cancer cell lines", "experiment": "EC50 for Gem-induced cell death or growth inhibition with G418 at fixed concentrations", "format": "cell-based", "conditions": "G418 at fixed concentrations with no or little effect on their own; Gem 2 to 5 days", "protocol": "Cell culture, cell death assays and growth assays—The T-24 and HT-1376 cell lines were purchased from the German Collection of Microorganisms and Cell Cultures and were cultivated in DMEM, high glucose, containing 10% Fetal Bovine Serum (FBS) or Minimum Essential Medium with 10% FBS and non-essential amino acids, respectively. HT-1197 was a gift from Bioxell (Milano) and was cultured like HT-1376. […] HT-1376 and its clones were incubated for 4 days and HT-1197 for 5 days with Gem including one medium change after 2 days. The percentage of dead cells that took up propidium iodide was determined using flow cytometry. […] Staining with Annexin-V-FITC was performed according to the manufacturer's description (Roche). […] Absorbance was read at 570 nm with reference at 650 nm.\nG418 enhances Gem-induced cell death or growth inhibition in various cancer cell lines—Since enhancing Gem action would benefit therapy, we tested whether supplementing Gem with G418 could augment the effect of Gem also in other cancer cell lines. To this end, we added G418 at fixed concentrations and determined the EC50 value for Gem-induced cell death. […]\nFIG. 6. […] Cell death was measured by propidium iodide dye exclusion except for MCF-7 and AsPC-1 where cell number was measured by MTT-assay. […]"}, "[2]": {"conditions": "concentrations comparable to the concentrations used by the applicant; cited from earlier work"}, "[3]": {"test_system": "T-24, HT-1376 and HT-1197 cell lines and clones", "experiment": "Metabolic labelling of protein synthesis with 35S-methionine/cysteine", "format": "cell-based", "protocol": "Cells were labelled for 1.5 hours in growth medium without methionine and cysteine supplemented with 30 μCi/ml [^35S]-methionine/cysteine. Subsequently, the proteins were precipitated with TCA as described previously (Zhang et al., 2004). The incorporated radioactivity was expressed as counts/μg protein.\nFIG. 3. Protein synthesis in the presence of Gem is higher in the resistant clones. […] Medium was removed and replaced for 1.5 h by medium containing 30 μCi/ml ^35S-methionine/cysteine (pulse). […] The reduction in radioactively labelled proteins due to protein degradation during the chase was significant as indicated. (B) The three parental cell lines and HT-1197 and T-24 stably expressing Bcl-2 were incubated with Gem as in (A) in the presence of 40 μM (T-24, HT-1376) or 80 μM z-VAD-fmk (HT-1197) or vehicle (DMSO). Subsequently, the cells were labelled as before. (C) Two sensitive and two resistant clones of each clone set were incubated and labelled as in (A). […] Results are from two independent experiments in duplicate. Error bars depict S.E.M. **P<0.01.\nFIG. 5. Protein synthesis inhibitors diminish Gem resistance. (A) Two sensitive and two resistant clones of each clone set were incubated with Gem (T-24: 30 nM, 2 days; HT-1376: 80 nM, 4 days; HT-1197: 120 nM, 5 days). […] Cell death was measured by propidium iodide dye exclusion using flow cytometry. (B) The parental cell lines were incubated with Gem (T-24: 30 nM Gem, 1 day; HT-1376: 80 nM, 3 days; HT-1197: 120 nM, 3 days) in the absence or presence of the indicated protein synthesis inhibitors (250 μg/ml G418 for T-24, 80 μg/ml for HT-1376, 70 μg/ml for HT-1197; 500 ng/ml CHX for all cell lines; 10 nM rapamycin for all cell lines). Subsequently, cells were labeled with 30 μCi/ml ^35S-methionine/cysteine. (C) The parental cell lines were incubated with Gem like for the selection of the Gem-resistant clones and additionally G418 was added at 250 μg/ml (T-24), 80 μg/ml G418 (HT-1376) or 70 μg/ml G418 (HT-1197). Afterward, the remaining cells on the culture plate were stained with crystal violet. A representative assay is shown. All other data are from two independent experiments in duplicate. Error bars represent S.E.M. **P-<0.01, ***p<0.001."}, "[4]": {"test_system": "eIF2α, eukaryotic initiation factor 4E binding protein 1, ribosomal protein S6", "experiment": "Phosphorylation state of translation regulators upon Gem treatment", "format": "cell-based", "protocol": "Quantitative real-time PCR and immunoblotting—We used the same RNA that was isolated for the DNA microarrays and prepared cDNA using Applied Biosystem (ABI) Reverse Transcription Reagents with random hexamer primers. Real-time PCR was performed using the PCR Master Mix (ABI) and ready-made TaqMan expression assays on an ABI Prism 7000. […] For this clone set, we used another “house-keeping gene”, HPRT1, for normalizing the expression values. Expression levels were calculated according to the formula: 1000*2^([…]). Cell lysis for protein extraction was performed on the same day as metabolic labelling. Immunoblotting was done as described previously (Abraham et al., 2005)."}, "[5]": {"test_system": "T-24 and HT-1197", "experiment": "Form of Gem-induced cell death, Bcl-2 overexpression", "format": "cell-based", "conditions": "inhibited by Bcl-2 overexpression", "protocol": "(§1) Cell culture, cell death assays and growth assays—The T-24 and HT-1376 cell lines were purchased from the German Collection of Microorganisms and Cell Cultures and were cultivated in DMEM, high glucose, containing 10% Fetal Bovine Serum (FBS) or Minimum Essential Medium with 10% FBS and non-essential amino acids, respectively. HT-1197 was a gift from Bioxell (Milano) and was cultured like HT-1376. […] HT-1376 and its clones were incubated for 4 days and HT-1197 for 5 days with Gem including one medium change after 2 days. The percentage of dead cells that took up propidium iodide was determined using flow cytometry. […] Staining with Annexin-V-FITC was performed according to the manufacturer's description (Roche). To assess the cell number by staining with 3-(4,5-Dimethylthiazol-2-yl)-2,5-diphenyltetrazolium bromide (MTT), MTT was added at 500 μg/ml. After 2 hours, precipitate was solubilized by addition of 0.04N HCl/Isopropanol. Absorbance was read at 570 nm with reference at 650 nm.\nIn HT-1376, apoptosis could not be inhibited by Bcl-2. However, this might be attributed to the relatively low overexpression of Bcl-2 (Supplementary FIG. 1)."}, "[6]": {"test_system": "clones of T-24, HT-1376 and HT-1197 bladder cancer cell lines", "experiment": "Cell death by propidium iodide dye exclusion (flow cytometry) in Gem-sensitive and Gem-resistant clones", "format": "cell-based", "conditions": "2 sensitive and 2 resistant clones per clone set; Gem 30 nM 2 days (T-24), 80 nM 4 days (HT-1376), 120 nM 5 days (HT-1197); G418 250 or 70 μg/ml, cycloheximide 500 ng/ml, rapamycin 10 nM", "protocol": "as §1\nGeneration of Gemcitabine-resistant clones and stable cell lines—The T-24 cell line was incubated with 120 nM Gem for 3 days, HT-1376 with 160 nM Gem and HT-1197 with 1.6 μM for 7 days. […] Subsequently, the medium was changed for normal growth medium without Gem and the cells were grown for additional 1 to 3 weeks. […]\nFIG. 5. […] Cell death was measured by propidium iodide dye exclusion using flow cytometry. […]"}},
  "data": [
    {"compound": "CN[C@@H]1[C@@H](O)[C@@H](O[C@@H]2[C@@H](O)[C@H](O[C@H]3O[C@H]([C@@H](C)O)[C@@H](O)[C@H](O)[C@H]3N)[C@@H](N)C[C@H]2N)OC[C@]1(C)O", "note": "[G418]", "values": [
      {"measurement": "Decrease of the EC50 value for Gem-induced cell death by addition of G418", "setting": "[1]", "value": "up to 30 fold"},
      {"measurement": "Effects of G418 treatment on mice", "setting": "[2]", "value": "without detectable effects on mice"}
    ]},
    {"compound": "Nc1ccn([C@@H]2O[C@H](CO)[C@@H](O)C2(F)F)c(=O)n1", "note": "[Gem, 2′-2′-difluorodeoxycytidine]", "values": [
      {"measurement": "Protein synthesis upon Gem treatment of the parental cell lines", "setting": "[3]; T-24 30 nM 1 day, HT-1376 80 nM 3 days, HT-1197 120 nM 3 days", "value": "protein synthesis was reduced"},
      {"measurement": "Protein synthesis upon Gem treatment, resistant versus sensitive clones", "setting": "[3]; two resistant and two sensitive clones of each clone set", "value": "decreased protein synthesis significantly less in the resistant clones compared to the sensitive clones"},
      {"measurement": "Phosphorylation state upon Gem treatment", "setting": "[4]", "value": "neither eIF2α nor eukaryotic initiation factor 4E binding protein 1 nor ribosomal protein S6 changed phosphorylation state"},
      {"measurement": "Form of cell death induced by Gem", "setting": "[5]", "value": "induced an apoptotic form of cell death"}
    ]},
    {"compound": "C[C@@H]1C[C@@H]([C@H](O)CC2CC(=O)NC(=O)C2)C(=O)[C@@H](C)C1", "note": "[cycloheximide]", "values": [
      {"measurement": "Gem-induced cell death on concomitant treatment with a protein synthesis inhibitor", "setting": "[6]", "value": "inhibited Gem-induced cell death"},
      {"measurement": "Protein synthesis in the presence of Gem plus a protein synthesis inhibitor", "setting": "[3]; parental cell lines, Gem 30 nM 1 day (T-24), 80 nM 3 days (HT-1376), 120 nM 3 days (HT-1197), G418 250/80/70 μg/ml, CHX 500 ng/ml, rapamycin 10 nM", "value": "increased protein synthesis compared to Gem alone"}
    ]},
    {"compound": "z-VAD-fmk", "values": [
      {"measurement": "Protein synthesis rates with Gem in the presence of the caspase inhibitor", "setting": "[3]; 40 μM (T-24, HT-1376) or 80 μM (HT-1197) z-VAD-fmk", "value": "did not alter the protein synthesis rates with Gem"}
    ]}
  ]
}
